In patent US20250270209A1 (INTERLINE THERAPEUTICS, INC., priority 2022, published 2025):

Legend:
[1] = biological target: T1, wild type LRRK2 overexpressed in recombinant HEK-293T cells (Homo sapiens, UniProt Q5S007); assay: pS935 LRRK2 Cell Assay (HTRF, phospho-LRRK2 Ser935); type: cell-based; conditions: LRRK2 Inhibition, Table 8, 2 hours compound incubation
T1 construct: host or cells: HEK293T (transient transfection with pCMV-LRRK2 WT plasmid)
In short: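 Phospho-Ser935 LRRK2 measured by two-antibody HTRF (Eu-cryptate donor, d2 acceptor; 665/615 nm ratio) after overnight detection at 23° C. Before lysis, transiently LRRK2-transfected HEK-293T cells were exposed 2 h at 37° C to a 9-point, 3-fold series from 10 μM, with DMSO at 0.2%.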

LRRK2 wild type enzyme = LRRK2 wild type enzyme (Homo sapiens, UniProt Q5S007); assay: Biochemical Assay: LRRK2 TR-FRET (LanthaScreen) kinase assay with LRRKtide substrate; conditions: LRRK2 Inhibition, Table 8
In short: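 TR-FRET detection (Tb-labelled phospho-LRRKtide antibody, EDTA stop, 30 min) followed a 120 min, 23 °C reaction of 3 nM wild-type human LRRK2 with LRRKtide (400 nM) and ATP (25 μM) in Tris pH 8.0. Compounds: 11-point 3-fold series from 10 μM, 15 min enzyme preincubation.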

Sequence of LRRK2 wild type enzyme (Q5S007 whole entry): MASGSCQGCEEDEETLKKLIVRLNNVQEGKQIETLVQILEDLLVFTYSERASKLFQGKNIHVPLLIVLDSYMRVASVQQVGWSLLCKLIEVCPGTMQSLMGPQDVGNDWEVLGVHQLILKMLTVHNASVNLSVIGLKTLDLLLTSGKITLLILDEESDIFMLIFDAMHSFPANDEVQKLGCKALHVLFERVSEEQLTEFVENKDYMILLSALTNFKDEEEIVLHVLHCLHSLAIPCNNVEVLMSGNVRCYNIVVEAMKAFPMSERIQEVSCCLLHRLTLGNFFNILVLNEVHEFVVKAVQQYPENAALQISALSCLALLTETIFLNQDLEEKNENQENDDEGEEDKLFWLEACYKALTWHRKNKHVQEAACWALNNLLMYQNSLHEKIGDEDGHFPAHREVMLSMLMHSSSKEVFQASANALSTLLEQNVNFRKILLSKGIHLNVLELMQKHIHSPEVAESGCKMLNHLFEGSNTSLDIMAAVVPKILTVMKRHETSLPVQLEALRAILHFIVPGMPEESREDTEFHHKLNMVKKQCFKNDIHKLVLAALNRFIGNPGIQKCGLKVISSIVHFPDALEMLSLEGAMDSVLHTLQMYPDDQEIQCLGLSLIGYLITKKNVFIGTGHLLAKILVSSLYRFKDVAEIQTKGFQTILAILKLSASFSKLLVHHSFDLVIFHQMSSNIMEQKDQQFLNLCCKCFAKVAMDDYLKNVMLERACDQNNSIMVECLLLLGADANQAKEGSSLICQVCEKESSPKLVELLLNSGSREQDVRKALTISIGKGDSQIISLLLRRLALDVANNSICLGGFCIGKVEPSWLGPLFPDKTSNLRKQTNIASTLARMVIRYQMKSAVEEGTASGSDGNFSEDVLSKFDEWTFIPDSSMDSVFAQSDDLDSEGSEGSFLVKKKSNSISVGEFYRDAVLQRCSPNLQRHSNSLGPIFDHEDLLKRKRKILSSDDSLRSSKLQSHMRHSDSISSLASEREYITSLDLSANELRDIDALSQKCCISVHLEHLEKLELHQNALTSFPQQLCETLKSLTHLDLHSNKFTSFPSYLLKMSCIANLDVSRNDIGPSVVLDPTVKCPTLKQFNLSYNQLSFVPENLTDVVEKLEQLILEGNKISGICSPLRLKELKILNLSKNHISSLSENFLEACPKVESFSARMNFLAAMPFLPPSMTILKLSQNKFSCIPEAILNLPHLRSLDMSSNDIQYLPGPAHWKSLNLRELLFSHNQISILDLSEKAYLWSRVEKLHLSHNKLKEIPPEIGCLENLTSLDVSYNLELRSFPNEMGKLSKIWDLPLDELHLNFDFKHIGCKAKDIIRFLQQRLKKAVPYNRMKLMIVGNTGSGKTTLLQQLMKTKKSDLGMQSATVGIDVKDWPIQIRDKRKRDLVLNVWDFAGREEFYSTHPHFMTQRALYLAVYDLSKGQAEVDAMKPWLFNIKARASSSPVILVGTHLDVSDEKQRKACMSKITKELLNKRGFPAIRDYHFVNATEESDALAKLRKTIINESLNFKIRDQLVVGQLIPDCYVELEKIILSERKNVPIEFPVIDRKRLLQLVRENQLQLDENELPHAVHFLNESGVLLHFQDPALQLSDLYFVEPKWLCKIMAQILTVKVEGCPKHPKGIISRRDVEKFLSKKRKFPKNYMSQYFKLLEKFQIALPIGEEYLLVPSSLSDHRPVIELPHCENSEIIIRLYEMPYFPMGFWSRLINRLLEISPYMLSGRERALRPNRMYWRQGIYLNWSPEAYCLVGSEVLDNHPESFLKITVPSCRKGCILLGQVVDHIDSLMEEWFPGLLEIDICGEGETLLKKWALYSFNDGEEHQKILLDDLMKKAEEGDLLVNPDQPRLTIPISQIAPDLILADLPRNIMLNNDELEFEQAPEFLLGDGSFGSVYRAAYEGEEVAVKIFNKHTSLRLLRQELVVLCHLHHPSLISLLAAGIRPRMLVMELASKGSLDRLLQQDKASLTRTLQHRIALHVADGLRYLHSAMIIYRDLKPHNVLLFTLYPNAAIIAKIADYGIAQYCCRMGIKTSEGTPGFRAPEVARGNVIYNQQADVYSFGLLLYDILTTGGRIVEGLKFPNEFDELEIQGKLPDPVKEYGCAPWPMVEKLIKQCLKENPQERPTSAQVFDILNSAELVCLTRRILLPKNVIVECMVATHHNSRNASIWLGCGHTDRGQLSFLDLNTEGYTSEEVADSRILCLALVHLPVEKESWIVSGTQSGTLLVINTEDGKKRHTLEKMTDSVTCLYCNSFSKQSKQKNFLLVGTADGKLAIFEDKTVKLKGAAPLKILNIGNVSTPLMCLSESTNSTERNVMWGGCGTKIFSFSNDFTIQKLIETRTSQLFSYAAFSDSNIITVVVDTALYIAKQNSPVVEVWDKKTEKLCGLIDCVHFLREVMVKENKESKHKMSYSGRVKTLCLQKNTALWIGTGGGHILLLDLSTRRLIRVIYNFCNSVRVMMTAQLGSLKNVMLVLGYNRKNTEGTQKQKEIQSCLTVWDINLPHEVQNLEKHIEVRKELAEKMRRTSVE
T1 sequence (Q5S007 whole entry): as above

Work on `C[C@@H]1C[C@H](n2c(CC(=O)Nc3cncnc3)nc3cnc4ccc(C#N)cc4c32)CCO1` [Compound 322, N-5-pyrimidinyl{3-[(2R,4R)-2-methyltetrahydro-2H-pyran-4-yl]-12-cyano-3,5,8-triazatricyclo[7.4.0.0^2,6]trideca-1(9),2(6),4,7,10,12-hexaen-4-yl}acetamide] yielded an IC50 [1] of 32.2 nM and an IC50 (LRRK2 wild type enzyme) of 1.08 nM.
For `C[C@@H]1C[C@H](n2c(C3CC(=O)N(CC4CC4)C3)nc3cnc4ccc(C#N)cc4c32)CCO1` (mixture of isomers) [Compound 69, 2-[(3RS)-1-(cyclopropylmethyl)-5-oxopyrrolidin-3-yl]-1-[(2R,4R)-2-methyloxan-4-yl]-1H-imidazo[4,5-c]quinoline-8-carbonitrile], the IC50 [1] was 182 nM and the IC50 (LRRK2 wild type enzyme) was 2.28 nM.
`C[C@@H]1C[C@H](n2c(C3CC(=O)N(Cc4cnn(C)c4)C3)nc3cnc4ccc(C#N)cc4c32)CCO1` (mixture of isomers) [Compound 58, 2-[(3RS)-1-[(1-methyl-1H-pyrazol-4-yl)methyl]-5-oxopyrrolidin-3-yl]-1-[(2R,4R)-2-methyloxan-4-yl]-1H-imidazo[4,5-c]quinoline-8-carbonitrile] gave an IC50 [1] of 931 nM and an IC50 (LRRK2 wild type enzyme) of 1.6 nM.
In the case of `Cc1nccnc1NC(=O)Cc1nc2cnc3ccc(C#N)cc3c2n1[C@@H]1CCO[C@H](C)C1` [Compound 311, N-(3-methyl-2-pyrazinyl){3-[(2R,4R)-2-methyltetrahydro-2H-pyran-4-yl]-12-cyano-3,5,8-triazatricyclo[7.4.0.0^2,6]trideca-1(9),2(6),4,7,10,12-hexaen-4-yl}acetamide], the IC50 [1] is reported as 10 nM and the IC50 (LRRK2 wild type enzyme) is reported as 0.583 nM.
With `COc1nc(C2CC2)ncc1NC(=O)Cc1nc2cnc3ccc(C#N)cc3c2n1[C@@H]1CCO[C@H](C)C1` [Compound 255, N-(2-cyclopropyl-4-methoxy-5-pyrimidinyl){3-[(2R,4R)-2-methyltetrahydro-2H-pyran-4-yl]-12-cyano-3,5,8-triazatricyclo[7.4.0.0^2,6]trideca-1,4,6,8,10,12-hexaen-4-yl}acetamide] the IC50 [1] was 3.92 nM and the IC50 (LRRK2 wild type enzyme) was 0.433 nM.
`C[C@@H]1C[C@H](n2c(CC(=O)NC3(C)CCC3)nc3cnc4ccc(C#N)cc4c32)CCO1` [Compound 303, N-1-methylcyclobutyl{3-[(2R,4R)-2-methyltetrahydro-2H-pyran-4-yl]-12-cyano-3,5,8-triazatricyclo[7.4.0.0^2,6]trideca-1(13),2(6),4,7,9,11-hexaen-4-yl}acetamide] showed an IC50 [1] of 47 nM and an IC50 (LRRK2 wild type enzyme) of 1.29 nM.
`C[C@@H]1C[C@H](n2c(CC(=O)Nc3ccon3)nc3cnc4ccc(C#N)cc4c32)CCO1` [Compound 184, 2-{8-cyano-1-[(2R,4R)-2-methyloxan-4-yl]-1H-imidazo[4,5-c]quinolin-2-yl}-N-(1,2-oxazol-3-yl)acetamide] was tested, and the IC50 [1] was 4.73 nM and the IC50 (LRRK2 wild type enzyme) was 0.299 nM.
For `CN1CC(n2c(CC(=O)NCC3CC3)nc3cnc4ccc(C#N)cc4c32)CCC1=O` (single isomer, unassigned) [Compound 90], the IC50 [1] was 799 nM and the IC50 (LRRK2 wild type enzyme) was 1.42 nM.
With `C[C@@H]1C[C@H](n2c(CC(=O)N[C@H](C)c3ccccn3)nc3cnc4ccc(C#N)cc4c32)CCO1` [Compound 190, 2-{8-cyano-1-[(2R,4R)-2-methyloxan-4-yl]-1H-imidazo[4,5-c]quinolin-2-yl}-N-[(1R)-1-(pyridin-2-yl)ethyl]acetamide] the IC50 [1] was 18.7 nM and the IC50 (LRRK2 wild type enzyme) was 0.696 nM.
`C[C@@H]1C[C@H](n2c(CC(=O)NC3CCCCC3)nc3cnc4ccc(C#N)cc4c32)CCO1` [Compound 309, N-cyclohexyl{3-[(2R,4R)-2-methyltetrahydro-2H-pyran-4-yl]-12-cyano-3,5,8-triazatricyclo[7.4.0.0^2,6]trideca-1,4,6,8,10,12-hexaen-4-yl}acetamide] gave an IC50 [1] of 14.4 nM and an IC50 (LRRK2 wild type enzyme) of 0.635 nM.
`C[C@@H]1C[C@H](n2c(C3CC(=O)N(C4COC4)C3)nc3cnc4ccc(C#N)cc4c32)CCO1` (stereo partly drawn) [Compound 46, 1-[(2R,4R)-2-methyloxan-4-yl]-2-[1-(oxetan-3-yl)-5-oxopyrrolidin-3-yl]-1H-imidazo[4,5-c]quinoline-8-carbonitrile] showed an IC50 [1] of 1330 nM and an IC50 (LRRK2 wild type enzyme) of 5.91 nM.
